Values of other authors in patent publication US6326360A, “Bubbling enteric coated preparations” (Grelan Pharmaceuticals Co., Ltd., priority 1998, dated 2001).

Details: oral tablets

CC1(C)[C@@H](O[C@H]2O[C@H](C(=O)O)[C@@H](O)[C@H](O)[C@H]2O[C@@H]2O[C@H](C(=O)O)[C@@H](O)[C@H](O)[C@H]2O)CC[C@]2(C)[C@H]3C(=O)C=C4[C@@H]5C[C@@](C)(C(=O)O)CC[C@]5(C)CC[C@@]4(C)[C@]3(C)CC[C@@H]12 [glycyrrhizin]
decomposition of glycyrrhizin in the stomach (in words): quickly decomposed into glycyrrhetinic acid in the stomach
transfer of unchanged glycyrrhizin into blood (in words): hardly observed
